Results taken from patent publication US7217708B2, “3,7-Diazabicyclo [3.3.1] formulations as anti-arrhythmic compounds” (Astrazeneca AB, priority 2001, dated 2007).

melting point: 113.5 °C
Compound: CC(C)(C)OC(=O)NCCN1CC2CN(CCCNc3ccc(C#N)cc3)CC(C1)O2 [Example 23, Compound B]
